# US12495798B2, “Nicotinamide compound and herbicidal composition comprising compound” (KOREA RESEARCH INSTITUTE OF CHEMICAL TECHNOLOGY, priority 2019, dated 2025)
# Experiments:
# Assay type in all cases: in vivo
# velvetleaf [1] = assay: Herbicidal activity test against upland field weeds (foliar treatment test); set-up: key to Foliar treatment herbicidal activity, velvet leaf: 0 (no control); 100 (complete control)
# In short: (§1)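 Greenhouse-grown plants (30±5 °C, 14/10 h light/dark) foliar hand-sprayed with compound in 50% acetone, 0.1% Tween-20 at 50 or 75 g a.i./ha. Control visually scored 0 (none) to 100 (complete) versus untreated after 14 days, or 21 days if needed.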
# crabgrass [2] = assay: as above; set-up: key to Foliar treatment herbicidal activity, Crabgrass: 0 (no control); 100 (complete control); conditions: scale 0-100
# In short: as §1
# quack grass [3] = assay: as above; set-up: key to Foliar treatment herbicidal activity, quack grass: 0 (no control); 100 (complete control); conditions: scale 0-100
# In short: as §1
# barnyard grass [4] = assay: Herbicidal activity test against upland field weeds (soil treatment test); set-up: key to Soil treatment herbicidal activity, barnyard grass: 0 (no control); 100 (complete control); conditions: scale 0 (no control) to 100 (complete control)
# In short: (§2)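 Pre-emergence soil surface spray, day after sowing, into sandy loam pots with fertilizer; compounds at 50 or 75 g a.i./ha in 50% acetone, 0.1% Tween-20. Greenhouse at 30±5 °C, 14/10 h light/dark; visual control rated 0–100 against untreated after 14 days (21 if needed).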
# indian jointvetch [5] = assay: as above; set-up: key to Soil treatment herbicidal activity, Indian jointvetch: 0 (no control); 100 (complete control); conditions: scale 0 (no control) to 100 (complete control)
# In short: as §2
# bindweed [6] = assay: as above; set-up: key to Soil treatment herbicidal activity, Bindweed: 0 (no control); 100 (complete control); conditions: scale 0 (no control) to 100 (complete control)
# In short: as §2
# fall panicum [7] = assay: as above; set-up: key to Soil treatment herbicidal activity, Fall panicum: 0 (no control); 100 (complete control); conditions: scale 0 (no control) to 100 (complete control)
# In short: as §2
# indian jointvetch [8] = assay: Herbicidal activity test against upland field weeds (foliar treatment test); set-up: key to Foliar treatment herbicidal activity, Indian jointvetch: 0 (no control); 100 (complete control); conditions: scale 0-100
# In short: as §1
# quack grass [9] = assay: Herbicidal activity test against upland field weeds (soil treatment test); set-up: key to Soil treatment herbicidal activity, quack grass: 0 (no control); 100 (complete control); conditions: scale 0 (no control) to 100 (complete control)
# In short: as §2
# sorghum [10] = assay: Herbicidal activity test against upland field weeds (foliar treatment test); set-up: key to Foliar treatment herbicidal activity, Sorghum: 0 (no control); 100 (complete control); conditions: scale 0-100
# In short: as §1
# black nightshade [11] = assay: as above; conditions: Solanum nigrum, scale 0-100
# In short: as §1
# barnyard grass [12] = assay: as above; set-up: key to Foliar treatment herbicidal activity, barnyard grass: 0 (no control); 100 (complete control); conditions: scale 0-100
# In short: as §1
# bindweed [13] = assay: as above; set-up: key to Foliar treatment herbicidal activity, Bindweed: 0 (no control); 100 (complete control); conditions: scale 0-100
# In short: as §1
# black nightshade [14] = assay: Herbicidal activity test against upland field weeds (soil treatment test); conditions: Solanum nigrum, scale 0 (no control) to 100 (complete control)
# In short: as §2
# sorghum [15] = assay: as above; set-up: key to Soil treatment herbicidal activity, Sorghum: 0 (no control); 100 (complete control); conditions: scale 0 (no control) to 100 (complete control)
# In short: as §2
# cocklebur [16] = assay: as above; set-up: key to Soil treatment herbicidal activity, Cocklebur: 0 (no control); 100 (complete control); conditions: scale 0 (no control) to 100 (complete control)
# In short: as §2
# crabgrass [17] = assay: as above; set-up: key to Soil treatment herbicidal activity, Crabgrass: 0 (no control); 100 (complete control); conditions: scale 0 (no control) to 100 (complete control)
# In short: as §2
# velvetleaf [18] = assay: as above; set-up: key to Soil treatment herbicidal activity, velvet leaf: 0 (no control); 100 (complete control); conditions: scale 0 (no control) to 100 (complete control)
# In short: as §2
# fall panicum [19] = assay: Herbicidal activity test against upland field weeds (foliar treatment test); set-up: key to Foliar treatment herbicidal activity, Fall panicum: 0 (no control); 100 (complete control); conditions: scale 0-100
# In short: as §1
# cocklebur [20] = assay: as above; set-up: key to Foliar treatment herbicidal activity, Cocklebur: 0 (no control); 100 (complete control); conditions: scale 0-100
# In short: as §1
# [21] = Digitaria sanguinalis, 75 g ai/ha
# [22] = Echinochloa crus-galli, 75 g ai/ha
# [23] = Panicum dichotomiflorum, 75 g ai/ha
structure (smiles),measurement,setting,value
"CN(CCOCc1nnn(C)n1)c1nc(C(F)(F)F)ccc1C(=O)Nc1nnnn1C [Compound No. 2-34, 2-(methyl(2-((2-methyl-2H-tetrazol-5-yl)methoxy)ethyl)amino)-N-(1-methyl-1H-tetrazol-5-yl)-6-(trifluoromethyl)nicotinamide]",pest or weed control at 75 g/ha,"velvetleaf [1]; Abutilon theophrasti, 75 g ai/ha, scale 0-100, read-out: Foliar treatment herbicidal activity, velvet leaf",50%
same,pest or weed control at 75 g/ha,crabgrass [2]; [21],60%
same,"Foliar treatment herbicidal activity, quack grass",quack grass [3]; 75 g ai/ha,0
same,pest or weed control at 75 g/ha,barnyard grass [4]; [22],60%
same,pest or weed control at 75 g/ha,indian jointvetch [5]; 75 g ai/ha,70%
same,"Soil treatment herbicidal activity, Bindweed",bindweed [6]; 75 g ai/ha,0
same,pest or weed control at 75 g/ha,fall panicum [7]; [23],80%
same,pest or weed control at 75 g/ha,indian jointvetch [8]; 75 g ai/ha,60%
same,"Soil treatment herbicidal activity, quack grass",quack grass [9]; 75 g ai/ha,0
same,plant injury at 75 g/ha,"sorghum [10]; Sorghum, 75 g ai/ha",20%
same,pest or weed control at 75 g/ha,black nightshade [11]; 75 g ai/ha,95%
same,pest or weed control at 75 g/ha,barnyard grass [12]; [22],70%
same,pest or weed control at 75 g/ha,bindweed [13]; 75 g ai/ha,50%
same,pest or weed control at 75 g/ha,black nightshade [14]; 75 g ai/ha,95%
same,"Soil treatment herbicidal activity, Sorghum",sorghum [15]; 75 g ai/ha,0
same,"Soil treatment herbicidal activity, Cocklebur",cocklebur [16]; 75 g ai/ha,0
same,pest or weed control at 75 g/ha,crabgrass [17]; [21],70%
same,pest or weed control at 75 g/ha,"velvetleaf [18]; Abutilon theophrasti, 75 g ai/ha, read-out: Soil treatment herbicidal activity, velvet leaf",60%
same,pest or weed control at 75 g/ha,fall panicum [19]; [23],40%
same,pest or weed control at 75 g/ha,"cocklebur [20]; Xanthium strumarium, 75 g ai/ha",40%
"Cn1nnc(CN(OCc2ccccc2)c2nc(C(F)(F)F)ccc2C(=O)Nc2nnnn2C)n1 [Compound No. 2-29, 2-((benzyloxy)((2-methyl-2H-tetrazol-5-yl)methyl)amino)-N-(1-methyl-1H-tetrazol-5-yl)-6-(trifluoromethyl)nicotinamide]","Foliar treatment herbicidal activity, velvet leaf","velvetleaf [1]; 50 g ai/ha, scale 0-100",0
same,"Foliar treatment herbicidal activity, Crabgrass",crabgrass [2]; 50 g ai/ha,0
same,"Foliar treatment herbicidal activity, quack grass",quack grass [3]; 50 g ai/ha,0
same,"Soil treatment herbicidal activity, barnyard grass",barnyard grass [4]; 50 g ai/ha,0
same,"Soil treatment herbicidal activity, Indian jointvetch",indian jointvetch [5]; 50 g ai/ha,0
same,"Soil treatment herbicidal activity, Bindweed",bindweed [6]; 50 g ai/ha,0
same,"Soil treatment herbicidal activity, Fall panicum",fall panicum [7]; 50 g ai/ha,0
same,"Foliar treatment herbicidal activity, Indian jointvetch",indian jointvetch [8]; 50 g ai/ha,0
same,"Soil treatment herbicidal activity, quack grass",quack grass [9]; 50 g ai/ha,0
same,"Foliar treatment herbicidal activity, Sorghum",sorghum [10]; 50 g ai/ha,0
same,pest or weed control at 50 g/ha,black nightshade [11]; 50 g ai/ha,20%
same,"Foliar treatment herbicidal activity, barnyard grass",barnyard grass [12]; 50 g ai/ha,0
same,"Foliar treatment herbicidal activity, Bindweed",bindweed [13]; 50 g ai/ha,0
same,pest or weed control at 50 g/ha,black nightshade [14]; 50 g ai/ha,20%
same,"Soil treatment herbicidal activity, Sorghum",sorghum [15]; 50 g ai/ha,0
same,"Soil treatment herbicidal activity, Cocklebur",cocklebur [16]; 50 g ai/ha,0
same,"Soil treatment herbicidal activity, Crabgrass",crabgrass [17]; 50 g ai/ha,0
same,"Soil treatment herbicidal activity, velvet leaf",velvetleaf [18]; 50 g ai/ha,0
same,"Foliar treatment herbicidal activity, Fall panicum",fall panicum [19]; 50 g ai/ha,0
same,"Foliar treatment herbicidal activity, Cocklebur",cocklebur [20]; 50 g ai/ha,0
